Measurements reported in patent US20100173835A1, “Peptides for Treatment of Obesity” (Novo Nordisk A/S, priority 2008, published 2010).
Converted amounts (≈) assume the structure as drawn. Where two headings read alike, the source gives them in different places. *1 amine or outer side, *2 acyl side, *3 side chain or, on linkers, in order; H or OH if unused. Where a SMILES comes first, the peptide text is derived from it. Bridges are numbered along the chain shown (N, C = ends). [ ]: non-standard residue; d: D form. The star is where a group is joined. Palmitoyl(16-(5-tetrazolyl)) = O=C(CCCCCCCCCCCCCCCc1nnn[nH]1)*; Lys(CH2CO2H)2 = N[C@@H](CCCCN(CC(=O)O)CC(=O)O)C(=O)O; C18 diacid = O=C(O)CCCCCCCCCCCCCCCCC(=O)*; γGlu = O=C(O)[C@H](CCC(=O)[*:2])N[*:1]; Hyp = O=C(O)[C@@H]1C[C@@H](O)CN1; NTA = O=C(O)CN(CC(=O)O)CC(=O)*; Nle = CCCC[C@H](N)C(=O)O; Orn = NCCC[C@H](N)C(=O)O; Dap = NC[C@H](N)C(=O)O; AEEA = NCCOCCOCC(=O)O

Legend:
[1] = molecular target: T1, human MC4 receptor (Homo sapiens, UniProt P32245); experiment: Assay (V) Melanocortin Receptor 4 (MC4) binding assay; conditions: 125NDP-α-MSH binding, BHK cell membranes
T1 construct: expressed in transfected cells
T1 sequence (P32245 whole entry): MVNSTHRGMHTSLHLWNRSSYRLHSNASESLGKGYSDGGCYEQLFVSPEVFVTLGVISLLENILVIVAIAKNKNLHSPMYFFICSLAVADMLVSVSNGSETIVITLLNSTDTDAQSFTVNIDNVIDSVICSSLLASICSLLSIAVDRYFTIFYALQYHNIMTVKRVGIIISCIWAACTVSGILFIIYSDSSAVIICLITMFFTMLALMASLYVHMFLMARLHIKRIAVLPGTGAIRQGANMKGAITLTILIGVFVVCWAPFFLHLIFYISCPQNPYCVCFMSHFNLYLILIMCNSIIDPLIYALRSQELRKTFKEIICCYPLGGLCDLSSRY
Procedure: Assay (V)—Melanocortin Receptor 4 (MC4) Binding Assay
In vitro ^125NDP-α-MSH binding to recombinant BHK cells expressing human MC4 receptor (filtration assay).
The assay is performed in 5 ml minisorb vials (Sarstedt No. 55.526) or in 96-well filterplates (Millipore MADVN 6550), and using BHK cells expressing the human MC4 receptor using BHK cells stably expressing the human MC4 receptor. The membranes were prepared from frozen or fresh cells that were homogenized in 20 mM HEPES pH 7.1, 5 mM MgCl2 and 1 mg/ml bacitracin and centrifuged at 15000 rpm at 4° C., 10 min in a Sorvall RC 5B plus, SS-34 rotor. The supernatant was discarded, and the pellets were re-suspended in buffer, homogenized and centrifuged two more times. The final pellets were resuspended in the buffer mentioned above, and the protein concentration was measured and adjusted with buffer to 14 to 17 mg/ml and the membrane preparation were kept at −80° C. until assay. The assay was run directly on a dilution of this cell membrane suspension, without any further preparation. The BHK cell membranes are kept at −80° C. until assay, and the assay is run directly on a dilution of this cell membrane suspension, without further preparation. The suspension is diluted to give maximally 10% specific binding, i.e. to approx. 50-100 fold dilution. The assay is performed in a total volume of 200 μl: 50 μl of cell suspension, 50 μl of ^125NDP-α-MSH (≈79 pM in final concentration), 50 μl of test compound and 50 μl binding buffer (pH 7) mixed and incubated for 2 h at 25° C. [binding buffer: 25 mM HEPES, pH 7.0, 1 mM CaCl2, 1 mM MgSO4, 1 mM EGTA, 0.02% Bacitracin, 0.005% Tween™ 20 and 0.1% HSA or, alternatively, 0.1% ovalbumin (Sigma; catalogue No. A-5503)]. Test compounds are dissolved in DMSO and diluted in binding buffer. Radiolabelled ligand and membranes are diluted in binding buffer. The incubation is stopped by dilution with 2×100 μl ice-cold 0.9% NaCl. The radioactivity retained on the filters is counted using a Cobra II auto gamma counter.
(§1) The data are analysed by non-linear regression analysis of binding curves, using the Windows™ program GraphPad™ Prism (GraphPad Software, USA).

[2] = molecular target: T2, MC1 receptor (Homo sapiens, UniProt Q01726); experiment: Assay (IV) Melanocortin Receptor 1 (MC1) binding assay
T2 construct: expressed in transfected cells
T2 sequence (Q01726 whole entry): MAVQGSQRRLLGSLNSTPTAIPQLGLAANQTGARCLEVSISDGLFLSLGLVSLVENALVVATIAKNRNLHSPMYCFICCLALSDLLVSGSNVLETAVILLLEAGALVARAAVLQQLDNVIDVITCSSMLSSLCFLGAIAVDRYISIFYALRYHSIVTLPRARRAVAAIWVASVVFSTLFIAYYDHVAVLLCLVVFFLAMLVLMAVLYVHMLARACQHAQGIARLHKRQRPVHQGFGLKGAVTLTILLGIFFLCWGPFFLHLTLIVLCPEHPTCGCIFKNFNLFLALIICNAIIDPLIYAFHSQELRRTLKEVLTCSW
Procedure: Assay (IV)—Melanocortin Receptor 1 (MC1) Binding Assay
The MC1 receptor binding assay is performed on BHK cell membranes stably expressing the MC1 receptor. The assay is performed in a total volume of 250 NI: 25 μl of ^125NDP-α-MSH (22 pM in final concentration), 25 μl of test compound/control and 200 μl of cell membrane (25 μg/ml). Test compounds are dissolved in DMSO. Radioactively labeled ligand, membranes and test compounds are diluted in buffer: 25 mM HEPES, pH 7.4, 0.1 mM CaCl2, 1 mM MgSO4, 1 mM EDTA, 0.1% HSA and 0.005% Tween™ 20. Alternatively, HSA may be substituted with ovalbumin. The samples are incubated at 30° C. for 90 min. in Costar round-bottom microtiter plates. Incubation is terminated by filtration on a Packard harvester filtermate. Rapid filtration through Packard Unifilter-96 GF/B filters pre-treated with polyethylenimine (PerkinElmer 6005277). The filters are washed with ice-cold 0.9% NaCl 8-10 times. The plates is air dried at app. 55° C. for 30 min, and 50 μl Microscint 0 (Packard, cat. No. 6013616) is added to each well. The plates are counted in a Topcounter (1 min/well).
as §1

[3] = Solubility data of compounds in water over the pH range; format: physicochemical
[4] = 125NDP-α-MSH binding, BHK cell membranes, read-out: Assay (IV) MC1 Ki

## CCCC[C@H](NC(=O)[C@H](CNC(=O)CN(CC(=O)O)CC(=O)O)NC(=O)[C@H](Cc1c[nH]cn1)NC(=O)[C@H](CCC(N)=O)NC(=O)[C@H](CO)NC(=O)CNC(=O)COCCOCCNC(=O)COCCOCCNC(=O)COCCOCCNC(=O)COCCOCCNC(=O)CCCCCCCCCCCCCCCc1nnn[nH]1)C(=O)N[C@H]1CCC(=O)NCCCC[C@@H](C(N)=O)NC(=O)[C@H](Cc2c[nH]c3ccccc23)NC(=O)[C@H](CCCNC(=N)N)NC(=O)[C@@H](Cc2ccccc2)NC(=O)[C@@H]2C[C@@H](O)CN2C1=O [Example 16, (2-{2-[2-(2-{2-[2-(2-{2-[2-(2-{2-[16-(Tetrazol-5-yl)hexadecanoylamino]ethoxy}ethoxy)acetylamino]ethoxy}ethoxy)acetylamino]ethoxy}ethoxy)acetylamino]ethoxy}ethoxy)acetyl-Gly-Ser-Gln-His-Dap(BCMA)-Nle-c[Glu-Hyp-D-Phe-Arg-Trp-Lys]-NH2] ({Palmitoyl(16-(5-tetrazolyl))-AEEA-AEEA-AEEA-AEEA}-GSQH[Dap](NTA)[Nle]E[Hyp][dF]RWK-NH2; lactam 7-12)
[1]; read-out: Assay (V) MC4 [Ki]
  Ki: 2.75 nM
[2]; [4]
  Ki: > 10000 nM
[3]; pH 3.18
  solubility at 3 days: 531 µM (≈ 1340 µg/mL)
[3]; pH 4.32
  solubility at 3 days: 515 µM (≈ 1300 µg/mL)
[3]; pH 4.67
  solubility at 3 days: 492 µM (≈ 1240 µg/mL)
[3]; pH 4.89
  solubility at 3 days: 450 µM (≈ 1140 µg/mL)
[3]; pH 4.98
  solubility at 3 days: 347 µM (≈ 877 µg/mL)
[3]; pH 5.75
  solubility at 3 days: 41 µM (≈ 104 µg/mL)
[3]; pH 6.37
  solubility at 3 days: 51 µM (≈ 129 µg/mL)
[3]; pH 6.66
  solubility at 3 days: 93 µM (≈ 235 µg/mL)
[3]; pH 7.3
  solubility at 3 days: 454 µM (≈ 1150 µg/mL)
[3]; pH 7.66
  solubility at 3 days: 596 µM (≈ 1510 µg/mL)

## CCCC[C@H](NC(=O)[C@H](CNC(=O)CN(CC(=O)O)CC(=O)O)NC(=O)[C@H](Cc1c[nH]cn1)NC(=O)[C@H](CCC(N)=O)NC(=O)[C@H](CO)NC(=O)CNC(=O)COCCOCCNC(=O)COCCOCCNC(=O)CC[C@H](NC(=O)CCCCCCCCCCCCCCCCC(=O)O)C(=O)O)C(=O)N[C@H]1CCC(=O)NCCCC[C@@H](C(N)=O)NC(=O)[C@H](Cc2c[nH]c3ccccc23)NC(=O)[C@H](CCCNC(=N)N)NC(=O)[C@@H](Cc2ccccc2)NC(=O)[C@@H]2C[C@@H](O)CN2C1=O [Example 18, (2-{2-[2-(2-{2-[(S)-4-Carboxy-4-(17-carboxyheptadecanoylamino)butanoylamino]ethoxy}ethoxy)acetylamino]ethoxy}ethoxy)acetyl-Gly-Ser-Gln-His-Dap(BCMA)-Nle-c[Glu-Hyp-D-Phe-Arg-Trp-Lys]-NH2] ({C18 diacid-γGlu-AEEA-AEEA}-GSQH[Dap](NTA)[Nle]E[Hyp][dF]RWK-NH2; lactam 7-12)
[1]; read-out: Assay (V) MC4 [Ki]
  Ki: 5.35 nM
[2]; [4]
  Ki: > 10000 nM
[3]; pH 3.7
  solubility at 3 days: 391 µM (≈ 921 µg/mL)
[3]; pH 5.2
  solubility at 3 days: 25 µM (≈ 58.9 µg/mL)
[3]; pH 5.96
  solubility at 3 days: 78 µM (≈ 184 µg/mL)
[3]; pH 6.56
  solubility at 3 days: 249 µM (≈ 587 µg/mL)
[3]; pH 6.73
  solubility at 3 days: 342 µM (≈ 806 µg/mL)
[3]; pH 6.95
  solubility at 3 days: 382 µM (≈ 900 µg/mL)
[3]; pH 7.07
  solubility at 3 days: 485 µM (≈ 1140 µg/mL)
[3]; pH 7.51
  solubility at 3 days: 498 µM (≈ 1170 µg/mL)

## CCCC[C@H](NC(=O)[C@H](CCCNC(=O)CN(CC(=O)O)CC(=O)O)NC(=O)[C@H](Cc1c[nH]cn1)NC(=O)[C@H](CCC(N)=O)NC(=O)[C@H](CO)NC(=O)CNC(=O)COCCOCCNC(=O)CCCCCCCCCCCCCCCc1nnn[nH]1)C(=O)N[C@H]1CCC(=O)NCCCC[C@@H](C(N)=O)NC(=O)[C@H](Cc2c[nH]c3ccccc23)NC(=O)[C@H](CCCNC(=N)N)NC(=O)[C@@H](Cc2ccccc2)NC(=O)[C@@H]2C[C@@H](O)CN2C1=O [Example 8, (2-{2-[16-(Tetrazol-5-yl)hexadecanoylamino]ethoxy}ethoxy)acetyl-Gly-Ser-Gln-His-Orn(BCMA)-Nle-c[Glu-Hyp-D-Phe-Arg-Trp-Lys]-NH2] ({Palmitoyl(16-(5-tetrazolyl))-AEEA}-GSQH[Orn](NTA)[Nle]E[Hyp][dF]RWK-NH2; lactam 7-12)
[1]; Assay (V) MC4 [Ki] (nM)
  Ki: 0.9 nM
[2]
  Ki: > 10000 nM
[3]; pH 2.96, pH 2.96, read-out: Conc (solubility in water)
  solubility at 3 days: 716 µM (≈ 1520 µg/mL)
[3]; pH 4.1, pH 4.1, read-out: Conc (solubility in water)
  solubility at 3 days: 536 µM (≈ 1140 µg/mL)
[3]; pH 4.24, pH 4.24, read-out: Conc (solubility in water)
  solubility at 3 days: 389 µM (≈ 825 µg/mL)
[3]; pH 4.87, pH 4.87, read-out: Conc (solubility in water)
  solubility at 3 days: 34 µM (≈ 72.1 µg/mL)
[3]; pH 5.9, pH 5.9, read-out: Conc (solubility in water)
  solubility at 3 days: 10 µM (≈ 21.2 µg/mL)
[3]; pH 6.7, pH 6.7, read-out: Conc (solubility in water)
  solubility at 3 days: 26 µM (≈ 55.1 µg/mL)
[3]; pH 7.45, pH 7.45, read-out: Conc (solubility in water)
  solubility at 3 days: 271 µM (≈ 575 µg/mL)
[3]; pH 7.47, pH 7.47, read-out: Conc (solubility in water)
  solubility at 3 days: 116 µM (≈ 246 µg/mL)
[3]; pH 7.75, pH 7.75, read-out: Conc (solubility in water)
  solubility at 3 days: 280 µM (≈ 594 µg/mL)
[3]; pH 7.95, pH 7.95, read-out: Conc (solubility in water)
  solubility at 3 days: 546 µM (≈ 1160 µg/mL)

## CCCC[C@H](NC(=O)[C@H](CCCCN(CC(=O)O)CC(=O)O)NC(=O)[C@H](Cc1c[nH]cn1)NC(=O)[C@H](CCC(N)=O)NC(=O)[C@H](CO)NC(=O)CNC(=O)COCCOCCNC(=O)CCCCCCCCCCCCCCCc1nnn[nH]1)C(=O)N[C@H]1CCC(=O)NCCCC[C@@H](C(N)=O)NC(=O)[C@H](Cc2c[nH]c3ccccc23)NC(=O)[C@H](CCCNC(=N)N)NC(=O)[C@@H](Cc2ccccc2)NC(=O)[C@@H]2C[C@@H](O)CN2C1=O [Example 7, (2-{2-[16-(Tetrazol-5-yl)hexadecanoylamino]ethoxy}ethoxy)acetyl-Gly-Ser-Gln-His-Lys(biscarboxymethyl)-Nle-c[Glu-Hyp-D-Phe-Arg-Trp-Lys]-NH2] ({Palmitoyl(16-(5-tetrazolyl))-AEEA}-GSQH[Lys(CH2CO2H)2][Nle]E[Hyp][dF]RWK-NH2; lactam 7-12)
[1]; Assay (V) MC4 [Ki] (nM)
  Ki: 1.6 nM
[2]
  Ki: 8710 nM
[3]; pH 2.94, pH 2.94, read-out: Conc (solubility in water)
  solubility at 3 days: 536 µM (≈ 1110 µg/mL)
[3]; pH 3.28, pH 3.28, read-out: Conc (solubility in water)
  solubility at 3 days: 476 µM (≈ 989 µg/mL)
[3]; pH 3.59, pH 3.59, read-out: Conc (solubility in water)
  solubility at 3 days: 398 µM (≈ 827 µg/mL)
[3]; pH 3.95, pH 3.95, read-out: Conc (solubility in water)
  solubility at 3 days: 276 µM (≈ 573 µg/mL)
[3]; pH 4.75, pH 4.75, read-out: Conc (solubility in water)
  solubility at 3 days: 42 µM (≈ 87.3 µg/mL)
[3]; pH 5.64, pH 5.64, read-out: Conc (solubility in water)
  solubility at 3 days: 19 µM (≈ 39.5 µg/mL)
[3]; pH 6.48, pH 6.48, read-out: Conc (solubility in water)
  solubility at 3 days: 18 µM (≈ 37.4 µg/mL)
[3]; pH 6.98, pH 6.98, read-out: Conc (solubility in water)
  solubility at 3 days: 35 µM (≈ 72.7 µg/mL)
[3]; pH 7.48, pH 7.48, read-out: Conc (solubility in water)
  solubility at 3 days: 262 µM (≈ 544 µg/mL)
[3]; pH 7.78, pH 7.78, read-out: Conc (solubility in water)
  solubility at 3 days: 391 µM (≈ 812 µg/mL)
